Residues, ends and D or L forms follow the SMILES beside them.
Legend:
[1] = test system: circulating CD8^+ T cells; test: ex-vivo combinatorial HLA-A2 MMr assay on PBMCs; format: cell-based, human; settings: for cognate naïve CD8^+ T-cell repertoire (validation of candidate epitope): frequency 1-50/10^6 CD8^+ T cells, clustered MMr staining, ≥50% of individuals; for median frequency in peripheral blood: T1D patients; for frequency of MMr^+ CD8^+ T cells, in words: HLA-A2^+ recent-onset T1D and healthy subjects
[2] = test system: islet-infiltrating CD8+ T cells of NOD mice; test: IFN-γ recall assay of islet-infiltrating cells against peptide-pulsed K^d+ L cells; format: cell-based; settings: for positive mice (number/tested) / positive mice, percentage: 12-16-week-old NOD females, positive = IFN-γ^+CD8^+ cells >1.8%; for median percentage of IFN-γ^+CD8^+ cells / positive range of percentage of IFN-γ^+CD8^+ cells: 6 h peptide recall with brefeldin-A, intracellular IFN-γ staining
From the text: Peptides predicted to be restricted by the murine MHC Class I K^d molecule were identified using prediction algorithms and scanning of the whole murine protein sequence. Peptides were first tested in pools, and positive pools subsequently deconvoluted for reactivity against individual peptides. To this end, islets were isolated from 12-16-week-old NOD mice by collagenase digestion and put in culture with recombinant human IL-2 (Proleukin, Novartis) for 5 days as described (Brezar et al, Eur J Immunol 2012). Cells exiting the islets were subsequently collected and subjected to recall assays against K^d+ L antigen-presenting cells pulsed with the indicated peptides for 6 h in the presence of brefeldin-A, followed by intracellular staining for IFN-γ. The TUM, Ins B15-23 and IGRP 206-214 peptides were included as negative control and positive controls, respectively.
We performed experiments in 12-16-week-old NOD females by analyzing the reactivity of islet-infiltrating CD8^+ T cells to peptides derived from murine Ucn3 and Pcsk2 and predicted to be restricted by the murine MHC molecule K^d. A positive response was defined as a percentage of IFN-γ^+CD8^+ cells >1.8%, which was the median response observed for the negative control TUM peptide.

[3] = test system: pancreas-infiltrating cells of HLA-A2^+ T1D patients; test: in-situ HLA-A2 MMr staining on pancreas sections; format: cell-based, human; settings: 2 HLA-A2^+ T1D cases, nPOD tissue sections
Protocol: In-situ staining was performed as described (Culina et al., 2018). Unfixed, frozen sections were dried for 2 h, loaded with 1 μg of MMrs overnight at 4° C., washed gently with phosphate-buffered saline and fixed in 2% paraformaldehyde for 10 min. After a further wash, endogenous peroxidase activity was blocked with 0.3% H2O2. Sections were then incubated serially with rabbit anti-phycoerythrin, horseradish peroxidase-conjugated swine anti-rabbit and 3,3′-diaminobenzidine tetrahydrochloride substrate (ThermoFisher). After a final wash, sections were counterstained with hematoxylin, dehydrated via sequential passages in 95-100% ethanol and xylene, mounted and analyzed using a Nikon Eclipse Ni microscope with NIS-Elements Analysis D software v4.40.

HLA-A*02:01 [4] = target: T1, HLA-A*02:01 (human); test: LC-MS/MS of peptides eluted from W6/32-purified pHLA Class I complexes of beta cells; the HLA-A2 restriction in this row is predicted
T1 construct: HLA-A2 multimers were produced as in Leisner et al. 2008; also called HLA-A2; A2

HLA-A*02:01 [5] = target: T1, HLA-A*02:01; test: one of the 18 HLA-eluted peptides with verified HLA-A2 binding; loaded on HLA-A2 multimers

In the case of CC(C)C[C@H](NC(=O)[C@H](CCC(=O)O)NC(=O)[C@@H](NC(=O)[C@H](CC(C)C)NC(=O)[C@H](Cc1ccccc1)NC(=O)[C@H](Cc1c[nH]cn1)NC(=O)[C@H](CC(N)=O)NC(=O)[C@@H](NC(=O)[C@@H](N)Cc1ccccc1)[C@@H](C)O)C(C)C)C(=O)O (H-FTNHFLVEL-OH; N-terminus and C-terminus assumed), the “cognate naïve CD8^+ T-cell repertoire (validation of candidate epitope)” value (“cognate naïve CD8^+ T-cell repertoire” below) ([1]; HLA-A2^+ healthy donors) is reported as “validated”.

With “CHGA344-352: HLA-eluted HLA-A2-restricted chromogranin A peptide (KMDQLAKEL)” the “cognate naïve CD8^+ T-cell repertoire” value ([1]; HLA-A2^+ healthy donors) was “validated”.

In the case of “GYRDINEIDI [Pcsk2 109-118, peptide derived from murine Pcsk2, predicted to be restricted by K^d]”, the “positive mice (number/tested)” value [2] is reported as 6/8, the “positive mice, percentage” value [2] is reported as 50% and the “median percentage of IFN-γ^+CD8^+ cells” value [2] is reported as 1.8%. The “positive range of percentage of IFN-γ^+CD8^+ cells” value [2] was 1.9-4.3%.

For “IAPP15-17/IAPP5-10: peptide splice product from fusion of IAPP15-17/IAPP5-10 (VALKLQVFL)”, the “in-situ MMr staining of pancreas sections” value (from here on “in-situ MMr staining”) [3] was “MMr^+ cells could be detected”, the donors with recognition ([1]; HLA-A2^+ healthy donors, screening) was 1 of 6 and the “median frequency in peripheral blood” value [1] was 1.6×10^−6.

With “IGRP 206-214: positive control peptide in NOD recall assay (VYLKTNVFL; UniProt Q9Z186 206-214, looked up, fragment) [reference compound]” the “positive mice (number/tested)” value [2] was 13/13, the “positive mice, percentage” value [2] was 100% and the “median percentage of IFN-γ^+CD8^+ cells” value [2] was 12.5%. For the same molecule, the “positive range of percentage of IFN-γ^+CD8^+ cells” value [2] was 4.5-25.3%.

With “ISL1276-284: HLA-eluted HLA-A2-restricted peptide of insulin gene enhancer protein ISL1 (GLQANPVEV)” the “in-situ MMr staining” value [3] was “MMr^+ cells could be detected”, the “cognate naïve CD8^+ T-cell repertoire” value ([1]; HLA-A2^+ healthy donors) was “validated” and the “median frequency in peripheral blood” value [1] was 7.2×10^−6.

For “KCNK16129-137: HLA-eluted HLA-A2-restricted KCNK16 peptide (ALLGIPLNV)”, the “cognate naïve CD8^+ T-cell repertoire” value ([1]; HLA-A2^+ healthy donors) was “validated”.

“KIF1A1347-1355: HLA-eluted HLA-A2-restricted Kinesin Family Member 1A peptide (VLDTSVAYV)” was tested, and the “cognate naïve CD8^+ T-cell repertoire” value ([1]; HLA-A2^+ healthy donors) was “validated”.

For “LYDESCSSTL [Pcsk2 341-350, peptide derived from murine Pcsk2, predicted to be restricted by K^d]”, the “positive mice (number/tested)” value [2] was 6/8, the “positive mice, percentage” value [2] was 75% and the “median percentage of IFN-γ^+CD8^+ cells” value [2] was 3.3%. For the same molecule, the “positive range of percentage of IFN-γ^+CD8^+ cells” value [2] was 1.9-5.2%.

In the case of “RYLEHVQAVI [Pcsk2 501-510, peptide derived from murine Pcsk2, predicted to be restricted by K^d]”, the “positive mice (number/tested)” value [2] is reported as 5/8, the “positive mice, percentage” value [2] is reported as 63% and the “median percentage of IFN-γ^+CD8^+ cells” value [2] is reported as 2.7%. The “positive range of percentage of IFN-γ^+CD8^+ cells” value [2] was 2.1-8.0%.

For “SCG5-009186-194: HLA-eluted peptide from SCG5-009 mRNA splice variant (FLSGAVNRL)”, the “cognate naïve CD8^+ T-cell repertoire” value ([1]; HLA-A2^+ healthy donors) was “validated” and the “frequency of MMr^+ CD8^+ T cells, in words” value [1] was “particularly high and clustered”.

For “SCG5186-195: HLA-eluted HLA-A2-restricted SCG5 (7B2) peptide (YLQGQRLDNV)”, the “cognate naïve CD8^+ T-cell repertoire” value ([1]; HLA-A2^+ healthy donors) was “validated”.

“TYFLLPLLL [Ucn3 5-13, peptide derived from murine Ucn3, predicted to be restricted by K^d]” was tested, and the “positive mice (number/tested)” value [2] was 8/12, the “positive mice, percentage” value [2] was 67% and the “median percentage of IFN-γ^+CD8^+ cells” value [2] was 2.3%. The “positive range of percentage of IFN-γ^+CD8^+ cells” value [2] was 2.1-8.6%.

In the case of “UCN31-9: HLA-eluted HLA-A2-restricted urocortin-3 peptide (MLMPVHFLL)”, the “cognate naïve CD8^+ T-cell repertoire” value ([1]; HLA-A2^+ healthy donors) is reported as “validated” and the “frequency of MMr^+ CD8^+ T cells, in words” value [1] is reported as “particularly high and clustered”.

For “VFSCLNTAL [Ucn3 32-40, peptide derived from murine Ucn3, predicted to be restricted by K^d]”, the “positive mice (number/tested)” value [2] was 8/12, the “positive mice, percentage” value [2] was 67% and the “median percentage of IFN-γ^+CD8^+ cells” value [2] was 1.9%. For the same molecule, the “positive range of percentage of IFN-γ^+CD8^+ cells” value [2] was 1.9-3.3%.

“ZnT8186-184: positive control islet peptide (VAANIVLTV; UniProt Q8IWU4 186-194, looked up, fragment) [reference compound]” was tested, and the “in-situ MMr staining” value [3] was “MMr^+ cells could be detected”.

FTNHFLVEL [PCSK2 30-38 peptide (FTNHFLVEL)]: binds (HLA-A*02:01 [4]).

ALLGIPLNV (peptide, UniProt Q96T55 129-137, looked up, range 129-137; Synthetic peptide) [KCNK16 129-137 peptide]: binds (HLA-A*02:01 [5]).

GLQANPVEV (peptide, UniProt P61371 276-284, looked up, range 276-284; Synthetic peptide) [insulin gene enhancer protein ISL1 276-284 peptide]: binds (HLA-A*02:01 [5]).

Reference: patent US20210023209A1, “ANTIGENIC PEPTIDES DERIVING FROM PCSK2 AND USES THEREOF FOR THE DIAGNOSIS AND TREATMENT OF TYPE 1 DIABETES” (INSERM (INSTITUT NATIONAL DE LA SANTÉ ET DE LA RECHERCHE …, priority 2018, published 2021)
